Laboratory results published in US20250339402A1, “EFFECTIVE MEANS TO MODULATE NMDA RECEPTOR-MEDIATED TOXICITY” (FUNDAMENTAL PHARMA GMBH, priority 2022, published 2025).
“Also recorded” adds a separate entry of the source. Counter-ions that a name gives are not always drawn.

Assays:
[1] = target: T1, NMDAR/TRPM4 complex (Homo sapiens, UniProt Q8TD43); assay: Co-immunoprecipitation of TRPM4 and NMDA receptor subunits, Western blot; format: cell-based; details: 10 μM for 30 min; lysates of human iPSC-derived brain organoids precipitated with anti-TRPM4; FIG. 5; hydrochloride
T1 construct: endogenous in cells; host or cells: human iPSC-derived brain organoids, week 25
T1 sequence (Q8TD43 whole entry, one chain of several): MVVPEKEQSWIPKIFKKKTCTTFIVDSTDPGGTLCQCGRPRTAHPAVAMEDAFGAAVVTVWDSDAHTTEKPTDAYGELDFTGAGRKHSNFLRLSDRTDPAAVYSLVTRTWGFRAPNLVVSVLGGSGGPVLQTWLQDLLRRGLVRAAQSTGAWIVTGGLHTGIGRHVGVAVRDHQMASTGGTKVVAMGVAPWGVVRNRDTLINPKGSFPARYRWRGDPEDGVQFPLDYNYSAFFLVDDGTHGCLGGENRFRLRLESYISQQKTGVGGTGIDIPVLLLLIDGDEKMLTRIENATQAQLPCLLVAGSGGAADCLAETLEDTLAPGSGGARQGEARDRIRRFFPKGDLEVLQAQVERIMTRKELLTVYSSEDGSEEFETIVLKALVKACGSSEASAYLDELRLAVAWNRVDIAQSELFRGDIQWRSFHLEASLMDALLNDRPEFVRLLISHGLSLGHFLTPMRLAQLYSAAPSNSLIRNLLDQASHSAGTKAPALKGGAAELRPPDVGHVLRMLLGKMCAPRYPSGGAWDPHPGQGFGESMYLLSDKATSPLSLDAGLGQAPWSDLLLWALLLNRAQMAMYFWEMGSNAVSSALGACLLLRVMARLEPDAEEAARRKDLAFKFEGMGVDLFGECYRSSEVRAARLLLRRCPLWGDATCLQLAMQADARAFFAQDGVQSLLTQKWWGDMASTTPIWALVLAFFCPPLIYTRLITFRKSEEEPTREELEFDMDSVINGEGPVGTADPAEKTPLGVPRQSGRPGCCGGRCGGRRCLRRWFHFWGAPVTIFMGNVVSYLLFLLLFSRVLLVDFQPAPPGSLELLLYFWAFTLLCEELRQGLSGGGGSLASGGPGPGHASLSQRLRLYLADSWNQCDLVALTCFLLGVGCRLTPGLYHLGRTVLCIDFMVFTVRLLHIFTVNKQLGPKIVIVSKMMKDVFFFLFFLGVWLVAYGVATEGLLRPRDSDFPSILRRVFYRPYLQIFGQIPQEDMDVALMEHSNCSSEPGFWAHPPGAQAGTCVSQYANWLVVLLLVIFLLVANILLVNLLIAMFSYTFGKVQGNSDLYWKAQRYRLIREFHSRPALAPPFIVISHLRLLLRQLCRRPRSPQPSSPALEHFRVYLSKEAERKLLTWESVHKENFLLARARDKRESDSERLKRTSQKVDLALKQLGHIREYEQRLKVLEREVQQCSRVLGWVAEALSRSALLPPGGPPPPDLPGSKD
Procedure: All procedures for co-immunoprecipitation were carried out at 4° C. Human iPSC derived brain organoids were cultured in Falcon@6 well TC-treated cell culture plate to week 25 as described (Bauersachs H G et al, Neuroscience, 2022; 484:83-97), which allows an abundant expression of both GluN2A/GluN2B/TRPM4 expression. 6 brain organoids were incubated with 10 μM compound 120 for 30 min, washed twice with ice-cold PBS and then lysed in 500 μL immunoprecipitation buffer (10 mM Tris, pH 8.0, 150 mM NaCl, 1 mM EDTA, 1% NP-40, 10% glycerol with EDTA-free Protease Inhibitor Cocktail (Roche). The lysate was incubated while rotating for 60 min, centrifuged for 12 min at 1,200×g to remove cell debris and nuclei. 10% of the supernatant was boiled with Laemmli buffer for input samples analysis. The rest of the supernatant was mixed with anti-TRPM4 antibody (1:200) overnight. The mixture was then incubated with Pierce™ Protein A Magnetic Beads for another 12 h to pull down antibody complex, and washed with immunoprecipitation buffer to remove any unspecific bindings. After the last washing, the supernatant was carefully removed, and the precipitate pellets were boiled in Laemmli buffer. Both input and precipitate samples were stored at −20° C. until analysed with western blots. […]

[2] = system: human iPSC-derived prefrontal cortex organoids; assay: Cell survival after glutamate/NMDA treatment in prefrontal cortex organoids (RealTime-Glo MT Cell Viability Assay); format: cell-based; details: pre-incubation 30 min, 200 μM NMDA for 24 h; compared with P401; FIG. 4; hydrochloride
Procedure: Prefrontal cortex organoids were generated based on published literature (Bauersachs H G et al, Neuroscience, 2022; 484:83-97). Around week 20, organoids were pre-incubated with compound 120 for 30 min before challenged with 200 μM NMDA for 24 h, where 80% of neuron will undergo necrosis. The cell death was monitored and analyzed with a RealTime-Glo™ MT Cell Viability Assay (Promega, G9711) following the manufacture's instruction using a plate reader (luciferase). The cell survival (%) can be calculated by the following equation: […]
Where Ft is the luciferase intensity at each time point and Fbasal is the basal luciferase intensity before glutamate/NMDA insult to diminish the difference between different organoids. The Control and FControlBasal stands for the same in untreated organoids, therefore the cell death can be calculated by normalization to the healthy organoids.

[3] = system: Primary mouse hippocampal neurons; assay: Excitotoxic (glutamate/NMDA-induced) cell death in primary neuronal cultures, protection index; format: cell-based; details: protection index from area above curve over 24 h glutamate/NMDA insult, compounds added 30 min before, 10 μM, Group A also at lower concentrations
Procedure: (§1) Primary mouse hippocampal neurons were prepared as previously described (Bading & Greenberg, Science, 1991; 253: 912-914; Zhang et al, Neuron, 2007, 53: 549-562) and maintained in Neurobasal-A medium supplemented with 2% B27, 5 mM L-Glutamax, and 0.5% Penicillin/Streptomycin until challenged with NMDA on days in vitro (DIV) 10. Glutamate-induced cell death was analyzed in a real-time manner by monitoring nuclear localized mCherry with IncuCyte® S3 Live-Cell Analysis System (Sartorius AG, Germany). Primary neurons plated in 24 well plates were infected with rAAV-hSyn-mCherry on DIV3 and challenged with 1 μM or 20 μM glutamate on DIV10. All compounds were added to the culture 30 min prior to glutamate/NMDA insult. Images were acquired following the glutamate application for 24 h with a 2 h interval, where 9-16 images were obtained via a 20×objective for each condition at each time point. Cell deaths were quantified by analyzing the existence of nuclear localized mCheery via the Basic Analyzer with Incucyte® 2021 software, size and average intensity were used as exclusion criteria.
In order to evaluate the protective effects of various compounds, a quantification method was developed to determine each compound's protection index. The protection index (from 0.0 to 10.0) was calculated by the area above the curve (AAC) during a 24 h excitotoxic stimuli, where the cell survival was normalized to the 0 h (FIG. 2), following the equation: […]
Where AAC represents for each compound, AACbasal represents for the basal condition without excitotoxic insult, AACVeh represents for the vehicle control with excitotoxic insult. Based on the equation, vehicle (DMSO) has a protection index at 0.0 and compound P401 of WO 2020/079244 has a protection index at 6.0 (at 10 μM).
The inventors also performed experiments with Group A compounds at lower concentration in a 3-fold dilution matter ([…]: 3.0, 1.0, 0.3, 0.1, 0.03) and were able to achieve a similar protection effect as 10 μM compound P401, but at a lower concentration.

[4] = system: Primary neurons; assay: Reactive oxygen species (H2O2) induced neuronal death in primary neurons; format: cell-based, mouse; details: 300 μM H2O2 on DIV10; compounds added 30 min before; FIG. 3; hydrochloride
Procedure: as §1, with “Images were acquired following the glutamate application for 24 h with a 2 h interval, where 9-16 images were obtained via a 20×objective for each condition at each time point.” left out
Primary neurons plated in 24 well plates were infected with rAAV-hSyn-mCherry on DIV3 and challenged with 300 μM H2O2 on DIV10. […] Cell deaths were quantified by analyzing the existence of nuclear localized mCherry via the Basic Analyzer with Incucyte® 2021 software, size and average intensity were used as exclusion criteria.

SMILES	disruption of NMDAR/TRPM4 complex [1]	cell survival (%) after glutamate/NMDA treatment [2]	Biological Activity Rating ([3]; first subset)	protection against H2O2 insult (cell survival) [4]	Biological Activity Rating ([3]; second subset, hydrochloride)
NCCN(Cc1cccc(Cl)c1F)C1CC1 [Compound 120, N1-(3-chloro-2-fluorobenzyl)-N1-cyclopropylethane-1,2-diamine hydrochloride]	the NMDAR/TRPM4 complex was disrupted; also recorded: disrupts the NMDAR/TRPM4 complex	superior protection over compound P401; also recorded: improves cell survival after glutamate/NMDA treatment	A+++ (With a protection index between 5.0 to 7.0, provides a comparable protection to compound P401 (10 μM) at 0.3 μM.)	–	–
CC(c1cccc(Cl)c1F)N(CCN)C1CC1 (centres unmarked) [Compound 220, N1-(1-(3-chloro-2-fluorophenyl)ethyl)-N1-cyclopropylethane-1,2-diamine hydrochloride]	–	–	–	better protection against H2O2 insult compared to P401 at 10 μM; also recorded: even better protection than the prior art compound P401	A++++ (With a protection index between 5.0 to 7.0, provides a comparable protection to compound P401 (10 μM) at 0.1 μM.)
